From PubChem BioAssay (NCI)
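Following 48 hours of exposure in 96-well plates, responses at five concentrations were used to interpolate endpoints linearly. GI50 marks 50% less growth. The concentration for full growth arrest is given as TGI.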

Columns and labels:
Assay in all cases: NCI tumour cell line growth inhibition, 48 h
HCT-15 colon = system: HCT-15 colon
UACC-62 melanoma = system: UACC-62 melanoma
NCI-H226 lung = system: NCI-H226 lung
OVCAR-4 ovarian = system: OVCAR-4 ovarian
MDA-N = system: MDA-N
TK-10 renal = system: TK-10 renal
DU-145 prostate = system: DU-145 prostate
SNB-19 CNS = system: SNB-19 CNS
M14 melanoma = system: M14 melanoma
MALME-3M melanoma = system: MALME-3M melanoma
HT29 colon = system: HT29 colon
HS 578T breast = system: HS 578T breast
786-0 renal = system: 786-0 renal
T-47D breast = system: T-47D breast
SK-MEL-2 melanoma = system: SK-MEL-2 melanoma
U251 CNS = system: U251 CNS
BT-549 breast = system: BT-549 breast
UACC-257 melanoma = system: UACC-257 melanoma
NCI/ADR-RES ovarian = system: NCI/ADR-RES ovarian
MDA-MB-231 breast = system: MDA-MB-231 breast
HOP-62 NSCLC = system: HOP-62 NSCLC
OVCAR-3 ovarian = system: OVCAR-3 ovarian
KM12 colon = system: KM12 colon
SK-MEL-5 melanoma = system: SK-MEL-5 melanoma
RXF 393 renal = system: RXF 393 renal
NCI-H522 lung = system: NCI-H522 lung
NCI-H460 lung = system: NCI-H460 lung
SF-295 CNS = system: SF-295 CNS
SN12C renal = system: SN12C renal
HOP-92 NSCLC = system: HOP-92 NSCLC
PC-3 prostate = system: PC-3 prostate
SF-268 CNS = system: SF-268 CNS
A498 renal = system: A498 renal
ACHN renal = system: ACHN renal
SW-620 colon = system: SW-620 colon
OVCAR-5 ovarian = system: OVCAR-5 ovarian
HCC-2998 colon = system: HCC-2998 colon
OVCAR-8 ovarian = system: OVCAR-8 ovarian
HCT-116 colon = system: HCT-116 colon
MCF7 breast = system: MCF7 breast
SF-539 CNS = system: SF-539 CNS
COLO 205 colon = system: COLO 205 colon
EKVX NSCLC = system: EKVX NSCLC
UO-31 renal = system: UO-31 renal
NCI-H23 lung = system: NCI-H23 lung
SK-MEL-28 melanoma = system: SK-MEL-28 melanoma
IGROV1 ovarian = system: IGROV1 ovarian
K-562 leukemia = system: K-562 leukemia
SK-OV-3 ovarian = system: SK-OV-3 ovarian
CAKI-1 renal = system: CAKI-1 renal
RPMI-8226 leukemia = system: RPMI-8226 leukemia
MDA-MB-435 = system: MDA-MB-435
A549 NSCLC = system: A549 NSCLC
SNB-75 CNS = system: SNB-75 CNS

## Oc1c(Cl)cc(C(c2cc(Cl)c(O)c(Cl)c2)C(c2cc(Cl)c(O)c(Cl)c2)c2cc(Cl)c(O)c(Cl)c2)cc1Cl
HCT-15 colon
  GI50: 2.57 µM
  TGI: 13.7 µM
UACC-62 melanoma
  GI50: 3 µM
  TGI: 12.5 µM
NCI-H226 lung
  GI50: 25.7 µM
OVCAR-4 ovarian
  GI50: 7.11 µM
  TGI: 94.4 µM
MDA-N
  GI50: 4.07 µM
  TGI: 19 µM
TK-10 renal
  GI50: 7.05 µM
  TGI: 21.5 µM
DU-145 prostate
  GI50: 3.63 µM
  TGI: 14.1 µM
SNB-19 CNS
  GI50: 3.51 µM
  TGI: 17.3 µM
M14 melanoma
  GI50: 4.25 µM
  TGI: 18.8 µM
MALME-3M melanoma
  GI50: 5.88 µM
  TGI: 30.4 µM
HT29 colon
  GI50: 4.36 µM
  TGI: 16.3 µM
HS 578T breast
  GI50: 4.54 µM
  TGI: 57.4 µM
786-0 renal
  GI50: 3.49 µM
  TGI: 16.7 µM
T-47D breast
  GI50: 1.74 µM
  TGI: 12.5 µM
SK-MEL-2 melanoma
  GI50: 2.92 µM
  TGI: 7.33 µM
U251 CNS
  GI50: 3.03 µM
  TGI: 10.7 µM
BT-549 breast
  GI50: 3.23 µM
  TGI: 36.9 µM
UACC-257 melanoma
  GI50: 7.75 µM
  TGI: 23.9 µM
NCI/ADR-RES ovarian
  GI50: 10.7 µM
  TGI: 38 µM
MDA-MB-231 breast
  GI50: 6.22 µM
  TGI: 26.4 µM
HOP-62 NSCLC
  GI50: 6.28 µM
  TGI: 19.2 µM
OVCAR-3 ovarian
  GI50: 3.12 µM
  TGI: 11.9 µM
KM12 colon
  GI50: 2.85 µM
  TGI: 11.8 µM
SK-MEL-5 melanoma
  GI50: 2.89 µM
  TGI: 14.8 µM
RXF 393 renal
  GI50: 1.34 µM
  TGI: 4.11 µM
NCI-H522 lung
  GI50: 6.36 µM
  TGI: 47.5 µM
NCI-H460 lung
  GI50: 2.59 µM
  TGI: 18.7 µM
SF-295 CNS
  GI50: 3.51 µM
  TGI: 16.3 µM
SN12C renal
  GI50: 2.41 µM
  TGI: 8.99 µM
HOP-92 NSCLC
  GI50: 3.44 µM
  TGI: 13.6 µM
PC-3 prostate
  TGI: 13.8 µM
SF-268 CNS
  GI50: 5.09 µM
A498 renal
  GI50: 10.1 µM
  TGI: 26.3 µM
ACHN renal
  GI50: 5.21 µM
  TGI: 20.3 µM
SW-620 colon
  GI50: 6.6 µM
  TGI: 23 µM
OVCAR-5 ovarian
  GI50: 12.3 µM
  TGI: 24.8 µM
HCC-2998 colon
  GI50: 3.79 µM
  TGI: 14.3 µM
OVCAR-8 ovarian
  GI50: 4.11 µM
  TGI: 22.3 µM
HCT-116 colon
  GI50: 2.36 µM
  TGI: 10.8 µM
MCF7 breast
  GI50: 3.18 µM
  TGI: 15.8 µM
SF-539 CNS
  GI50: 5.33 µM
  TGI: 20.4 µM
COLO 205 colon
  GI50: 10.6 µM
  TGI: 28.9 µM
EKVX NSCLC
  GI50: 3.35 µM
  TGI: 17.2 µM
UO-31 renal
  GI50: 0.573 µM
  TGI: 8.04 µM
NCI-H23 lung
  GI50: 3.68 µM
  TGI: 16.3 µM
SK-MEL-28 melanoma
  GI50: 5.27 µM
  TGI: 54.3 µM
IGROV1 ovarian
  GI50: 5.29 µM
  TGI: 16.8 µM
K-562 leukemia
  GI50: 13.1 µM
  TGI: 38 µM
SK-OV-3 ovarian
  GI50: 11.3 µM
  TGI: 23.4 µM
CAKI-1 renal
  GI50: 3.45 µM
  TGI: 13.6 µM
RPMI-8226 leukemia
  GI50: 3 µM
  TGI: 12.4 µM
MDA-MB-435
  GI50: 5.64 µM
  TGI: 19.2 µM
A549 NSCLC
  GI50: 3.73 µM
  TGI: 36.4 µM
SNB-75 CNS
  GI50: 3.08 µM
  TGI: 7.87 µM
